Results: patent US20230364102A1, “COMPOSITIONS AND METHODS FOR THE TREATMENT OF NEUROLOGICAL DISORDERS” (Duke University, priority 2020, published 2023)

Assays:
[1] = tested on: human LRRK2 G2019S or GFP expressing neuronal cultures; assay: QPCR-based mtDNA damage assay in primary midbrain neuronal cultures expressing human LRRK2 G2019S; assay type: cell-based; details: treated for 6 h
Text: Divide the normalized fluorescence values of each sample by the average normalized fluorescence value to get a ratio. […]

[2] = tested on: primary rat midbrain neurons; assay: Rotenone-induced mtDNA damage in primary midbrain neurons; assay type: cell-based; details: pre-treated for 24 h before rotenone
Protocol: (§1) This example describes how mitochondrial DNA damage was measured using a quantitative PCR-based assay as described above. The following reagents and protocol steps as disclosed in Sanders et al., Curr Protoc Toxicol. 2018 May; 76(1): e50, doi: 10.1002/cptx.50 and also in U.S. Pat. No. 11,001,890. The entire contents of said publication and patent are herein incorporated by reference.
(§2) Make a master mix if several samples are being run simultaneously. […]
(§3) Perform the PCR reaction using the PCR amplification profile is as follows for the large mitochondrial PCR product using the KAPA LongRange Hot Start kit: • Melting: 94° C. for 3 min • Amplification: the optimized number of cycles (26-28) of melting (94° C. for 15 sec) and annealing (66° C. for 12 min). • Final extension: To complete the profile and finalize amplification of products, perform a final extension for 10 min at 72° C. • Holding: Hold at 4° C. until products are removed for quantification. […]
(§4) (1) Add 10 μL of each PCR product and 90 μL of TE buffer to each of triplicate wells. […] Follow steps 6, 7 and 8 in Support Protocol 2 for fluorescent quantification of DNA.
(§5) Normalize large mitochondrial PCR product fluorescence values for copy number differences using the small mitochondrial PCR product. […] This is the normalized large mitochondrial fluorescence value (A. M. Furda, Bess, Meyer, & Van Houten, 2012a). […]

[3] = tested on: LRRK2 G2019S patient-derived cells; assay: mtDNA damage in LRRK2 G2019S patient-derived cells; assay type: cell-based, human; details: 24 h, 1 μM, n=3
Protocol: as §1, §2, §3, §4, §5

[4] = tested on: ATM pSer1981; details: following treatment with the neurotoxin; cited from earlier work
[5] = tested on: ATM pSer1981; assay: Western blot of ATM pSer1981 in HEK293 cells; assay type: cell-based, human; details: 100 nM, 24 h vs vehicle

For CCNc1nc(Nc2cc(F)c(C(=O)N3CCOCC3)cc2OC)ncc1C(F)(F)F [GNE-7915], the “mtDNA damage (mtDNA integrity)” value [1] was “restored mtDNA integrity” and the “prevention of rotenone induced mtDNA damage” value [2] was “able to prevent rotenone induced mtDNA damage”.
For C[C@@H]1CN(CC(=O)Nc2ccc3c(c2)Cc2cccc(-c4cc(=O)cc(N5CCOCC5)o4)c2S3)C[C@H](C)O1 [KU60019], the mtDNA damage [3] was “sufficient to reverse mtDNA damage”.
For C[n+]1ccc(-c2ccccc2)cc1 [MPP+], the “expression of ATM pSer1981” value [4] is listed as “increased”.
With C=C(C)[C@H]1Cc2c(ccc3c2O[C@@H]2COc4cc(OC)c(OC)cc4[C@@H]2C3=O)O1 [rotenone] the “ATM pSer1981 (kinase active) level” value [5] was “increased ATM pSer1981 levels” and the “ATM pSer1981 (kinase active) level” value ([5]; listed as Rotenone) was “increased levels of ATM pSer1981”.
